Experimental data taken from ChEMBL document CHEMBL4808193, “[11]-Chaetoglobosins from Pseudeurotium bakeri Induce G2/M Cell Cycle Arrest and Apoptosis in Human Cancer Cells” (J Nat Prod, 2021).
pIC50: −log10 of the molar value.

Experiments:
A549 = assay: Cytotoxicity against human A549 cells assessed as reduction in cell viability by MTT assay; type: functional, cell-based
A-427 [1] = assay: Cytotoxicity against human A-427 cells assessed as reduction in cell viability by MTT assay; type: functional, cell-based
HCT-116 = assay: Cytotoxicity against human HCT-116 cells assessed as reduction in cell viability by MTT assay; type: functional, cell-based
HT-29 = assay: Cytotoxicity against human HT-29 cells assessed as reduction in cell viability by MTT assay; type: functional, cell-based
MCF7 [2] = assay: Cytotoxicity against human MCF7 cells assessed as reduction in cell viability by MTT assay; type: functional, cell-based
HeLa = assay: Cytotoxicity against human HeLa cells assessed as reduction in cell viability by MTT assay; type: functional, cell-based
HepG2 = assay: Cytotoxicity against human HepG2 cells assessed as reduction in cell viability by MTT assay; type: functional, cell-based
L02 = assay: Cytotoxicity against human L02 cells assessed as reduction in cell viability by MTT assay; type: cell-based
A-427 [3] = assay: Induction of apoptosis in human A-427 cells assessed as late apoptotic cells at 7.5 uM measured after 24 hrs by Annexin V-FITC/propidium iodide staining based flow cytometric analysis (reference value: 3.59%); type: functional
A-427 [4] = assay: Induction of apoptosis in human A-427 cells assessed as late apoptotic cells at 5 uM measured after 24 hrs by Annexin V-FITC/propidium iodide staining based flow cytometric analysis (reference value: 3.59%); type: functional
A-427 [5] = assay: Induction of apoptosis in human A-427 cells assessed as late apoptotic cells at 2.5 uM measured after 24 hrs by Annexin V-FITC/propidium iodide staining based flow cytometric analysis (reference value: 3.59%); type: functional
A-427 [6] = assay: Induction of apoptosis in human A-427 cells assessed as early apoptotic cells at 7.5 uM measured after 24 hrs by Annexin V-FITC/propidium iodide staining based flow cytometric analysis (reference value: 4.75%); type: functional
A-427 [7] = assay: Induction of apoptosis in human A-427 cells assessed as early apoptotic cells at 5 uM measured after 24 hrs by Annexin V-FITC/propidium iodide staining based flow cytometric analysis (reference value: 4.75%); type: functional
A-427 [8] = assay: Induction of apoptosis in human A-427 cells assessed as early apoptotic cells at 2.5 uM measured after 24 hrs by Annexin V-FITC/propidium iodide staining based flow cytometric analysis (reference value: 4.75%); type: functional
MCF7 [9] = assay: Induction of apoptosis in human MCF7 cells assessed as late apoptotic cells at 10 uM measured after 24 hrs by Annexin V-FITC/propidium iodide staining based flow cytometric analysis (reference value: 1.19%); type: functional
MCF7 [10] = assay: Induction of apoptosis in human MCF7 cells assessed as late apoptotic cells at 7.5 uM measured after 24 hrs by Annexin V-FITC/propidium iodide staining based flow cytometric analysis (reference value: 1.19%); type: functional
MCF7 [11] = assay: Induction of apoptosis in human MCF7 cells assessed as late apoptotic cells at 5 uM measured after 24 hrs by Annexin V-FITC/propidium iodide staining based flow cytometric analysis (reference value: 1.19%); type: functional
MCF7 [12] = assay: Induction of apoptosis in human MCF7 cells assessed as early apoptotic cells at 10 uM measured after 24 hrs by Annexin V-FITC/propidium iodide staining based flow cytometric analysis (reference value: 3.07%); type: functional
MCF7 [13] = assay: Induction of apoptosis in human MCF7 cells assessed as early apoptotic cells at 7.5 uM measured after 24 hrs by Annexin V-FITC/propidium iodide staining based flow cytometric analysis (reference value: 3.07%); type: functional
MCF7 [14] = assay: Induction of apoptosis in human MCF7 cells assessed as early apoptotic cells at 5 uM measured after 24 hrs by Annexin V-FITC/propidium iodide staining based flow cytometric analysis (reference value: 3.07%); type: functional
A-427 [15] = assay: Cell cycle arrest in human A-427 cells assessed as accumulation at G2/M phase at 6 uM measured after 24 hrs by PI staining based flow cytometry (reference value: 13.59%); type: functional
A-427 [16] = assay: Cell cycle arrest in human A-427 cells assessed as accumulation at S phase at 6 uM measured after 24 hrs by PI staining based flow cytometry (reference value: 25.84%); type: functional
A-427 [17] = assay: Cell cycle arrest in human A-427 cells assessed as accumulation at G0/G1 phase at 6 uM measured after 24 hrs by PI staining based flow cytometry (reference value: 60.57%); type: functional
A-427 [18] = assay: Cell cycle arrest in human A-427 cells assessed as accumulation at G2/M phase at 4 uM measured after 24 hrs by PI staining based flow cytometry (reference value: 13.59%); type: functional
A-427 [19] = assay: Cell cycle arrest in human A-427 cells assessed as accumulation at S phase at 4 uM measured after 24 hrs by PI staining based flow cytometry (reference value: 25.84%); type: functional
A-427 [20] = assay: Cell cycle arrest in human A-427 cells assessed as accumulation at G0/G1 phase at 4 uM measured after 24 hrs by PI staining based flow cytometry (reference value: 60.57%); type: functional
A-427 [21] = assay: Cell cycle arrest in human A-427 cells assessed as accumulation at G2/M phase at 2 uM measured after 24 hrs by PI staining based flow cytometry (reference value: 13.59%); type: functional
A-427 [22] = assay: Cell cycle arrest in human A-427 cells assessed as accumulation at S phase at 2 uM measured after 24 hrs by PI staining based flow cytometry (reference value: 25.84%); type: functional
A-427 [23] = assay: Cell cycle arrest in human A-427 cells assessed as accumulation at G0/G1 phase at 2 uM measured after 24 hrs by PI staining based flow cytometry (reference value: 60.57%); type: functional
MCF7 [24] = assay: Cell cycle arrest in human MCF7 cells assessed as accumulation at G2/M phase at 10 uM measured after 24 hrs by PI staining based flow cytometry (reference value: 18.9%); type: functional
MCF7 [25] = assay: Cell cycle arrest in human MCF7 cells assessed as accumulation at S phase at 10 uM measured after 24 hrs by PI staining based flow cytometry (reference value: 9.43%); type: functional
MCF7 [26] = assay: Cell cycle arrest in human MCF7 cells assessed as accumulation at G0/G1 phase at 10 uM measured after 24 hrs by PI staining based flow cytometry (reference value: 61.67%); type: functional
MCF7 [27] = assay: Cell cycle arrest in human MCF7 cells assessed as accumulation at G2/M phase at 7.5 uM measured after 24 hrs by PI staining based flow cytometry (reference value: 18.9%); type: functional
MCF7 [28] = assay: Cell cycle arrest in human MCF7 cells assessed as accumulation at S phase at 7.5 uM measured after 24 hrs by PI staining based flow cytometry (reference value: 9.43%); type: functional
MCF7 [29] = assay: Cell cycle arrest in human MCF7 cells assessed as accumulation at G0/G1 phase at 7.5 uM measured after 24 hrs by PI staining based flow cytometry (reference value: 61.67%); type: functional
MCF7 [30] = assay: Cell cycle arrest in human MCF7 cells assessed as accumulation at G2/M phase at 5 uM measured after 24 hrs by PI staining based flow cytometry (reference value: 18.9%); type: functional
MCF7 [31] = assay: Cell cycle arrest in human MCF7 cells assessed as accumulation at S phase at 5 uM measured after 24 hrs by PI staining based flow cytometry (reference value: 9.43%); type: functional
MCF7 [32] = assay: Cell cycle arrest in human MCF7 cells assessed as accumulation at G0/G1 phase at 5 uM measured after 24 hrs by PI staining based flow cytometry (reference value: 61.67%); type: functional

CC1=C[C@@H]2/C=C/C[C@H](C)CC(=O)/C=C\C(=O)[C@]23C(=O)N[C@@H](Cc2c[nH]c4ccccc24)[C@@H]3[C@@H]1C
pIC50 (A549): 5.10 | pIC50 (A-427 [1]): 5.18 | pIC50 (HCT-116): 4.97 | pIC50 (HT-29): 5.09 | pIC50 (MCF7 [2]): 5.14 | pIC50 (HeLa): 5.08 | pIC50 (HepG2): 5.02 | pIC50 (L02): 4.45 | Activity (A-427 [3]): 32.81% | Activity (A-427 [4]): 23.7% | Activity (A-427 [5]): 17.54% | Activity (A-427 [6]): 27.61% | Activity (A-427 [7]): 23.77% | Activity (A-427 [8]): 12.11% | Activity (MCF7 [9]): 9.17% | Activity (MCF7 [10]): 7.41% | Activity (MCF7 [11]): 7.3% | Activity (MCF7 [12]): 28.62% | Activity (MCF7 [13]): 25.77% | Activity (MCF7 [14]): 18.98% | Activity (A-427 [15]): 50.04% | Activity (A-427 [16]): 22.56% | Activity (A-427 [17]): 27.41% | Activity (A-427 [18]): 44.26% | Activity (A-427 [19]): 21.18% | Activity (A-427 [20]): 34.56% | Activity (A-427 [21]): 34.67% | Activity (A-427 [22]): 20.39% | Activity (A-427 [23]): 44.94% | Activity (MCF7 [24]): 60.73% | Activity (MCF7 [25]): 12.31% | Activity (MCF7 [26]): 26.96% | Activity (MCF7 [27]): 51.12% | Activity (MCF7 [28]): 13.87% | Activity (MCF7 [29]): 35% | Activity (MCF7 [30]): 48.62% | Activity (MCF7 [31]): 13.57% | Activity (MCF7 [32]): 37.81%
